Holding throughout (type): biochemical
In assay [1] the target is 320 wild-type protein kinases (Homo sapiens, UniProt P11362). Particulars: singlicate. An excerpt:
(§1) Table S4. Profiling of two compounds at two concentrations against 320 wild-type protein kinases; singlicate measurement; Residual activities (% of control).

Assay [2] addresses 320 wild-type protein kinases (Homo sapiens, UniProt P14616). Particulars: INSR-R, singlicate.
Description: as §1

Assay [3] deals with 320 wild-type protein kinases (Homo sapiens, UniProt P51617). The conditions noted are these: singlicate.
Description: as §1

The target in assay [4] is 320 wild-type protein kinases (Homo sapiens, UniProt Q02763). Particulars: kinase TIE2, singlicate.
Description: as §1

The target in assay [5] is 320 wild-type protein kinases (Homo sapiens, UniProt Q05655). Particulars: PKC-delta, singlicate.
Description: as §1

In assay [6] the target is 320 wild-type protein kinases (Homo sapiens, UniProt Q13131). The conditions noted are these: singlicate.
Description: as §1

Assay [7] deals with 320 wild-type protein kinases (Homo sapiens, UniProt Q6IQ55). Particulars: kinase TTBK2, singlicate.
Description: as §1

Assay [8] has as its target T1, 320 wild-type protein kinases (Homo sapiens, UniProt Q8WTQ7).
T1 sequence (Q8WTQ7 1-553): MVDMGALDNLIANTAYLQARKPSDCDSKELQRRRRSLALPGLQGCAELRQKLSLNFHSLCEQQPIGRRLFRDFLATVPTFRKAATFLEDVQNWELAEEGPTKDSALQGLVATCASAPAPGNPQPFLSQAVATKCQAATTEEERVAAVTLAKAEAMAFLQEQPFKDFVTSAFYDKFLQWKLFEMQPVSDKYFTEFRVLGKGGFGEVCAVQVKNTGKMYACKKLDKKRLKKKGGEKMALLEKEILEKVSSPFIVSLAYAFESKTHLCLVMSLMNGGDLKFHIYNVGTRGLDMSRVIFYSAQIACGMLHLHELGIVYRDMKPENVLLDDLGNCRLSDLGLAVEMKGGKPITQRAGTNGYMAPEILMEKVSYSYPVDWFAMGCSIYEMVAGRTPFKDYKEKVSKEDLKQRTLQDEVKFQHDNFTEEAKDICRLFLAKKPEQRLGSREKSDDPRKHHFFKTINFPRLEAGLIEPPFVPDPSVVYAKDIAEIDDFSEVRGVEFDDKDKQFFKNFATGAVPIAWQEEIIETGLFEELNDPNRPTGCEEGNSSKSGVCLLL
Particulars: singlicate.
Description: as §1

In assay [9] the target is 320 wild-type protein kinases (Homo sapiens, UniProt Q9H1R3). The conditions noted are these: singlicate.
Description: as §1

Assay [10] concerns the target 320 wild-type protein kinases (Homo sapiens, UniProt Q9HCP0). Particulars: singlicate.
Description: as §1

The target in assay [11] is T2, 320 wild-type protein kinases (Homo sapiens, UniProt Q9UKI8).
T2 sequence (Q9UKI8 1-766): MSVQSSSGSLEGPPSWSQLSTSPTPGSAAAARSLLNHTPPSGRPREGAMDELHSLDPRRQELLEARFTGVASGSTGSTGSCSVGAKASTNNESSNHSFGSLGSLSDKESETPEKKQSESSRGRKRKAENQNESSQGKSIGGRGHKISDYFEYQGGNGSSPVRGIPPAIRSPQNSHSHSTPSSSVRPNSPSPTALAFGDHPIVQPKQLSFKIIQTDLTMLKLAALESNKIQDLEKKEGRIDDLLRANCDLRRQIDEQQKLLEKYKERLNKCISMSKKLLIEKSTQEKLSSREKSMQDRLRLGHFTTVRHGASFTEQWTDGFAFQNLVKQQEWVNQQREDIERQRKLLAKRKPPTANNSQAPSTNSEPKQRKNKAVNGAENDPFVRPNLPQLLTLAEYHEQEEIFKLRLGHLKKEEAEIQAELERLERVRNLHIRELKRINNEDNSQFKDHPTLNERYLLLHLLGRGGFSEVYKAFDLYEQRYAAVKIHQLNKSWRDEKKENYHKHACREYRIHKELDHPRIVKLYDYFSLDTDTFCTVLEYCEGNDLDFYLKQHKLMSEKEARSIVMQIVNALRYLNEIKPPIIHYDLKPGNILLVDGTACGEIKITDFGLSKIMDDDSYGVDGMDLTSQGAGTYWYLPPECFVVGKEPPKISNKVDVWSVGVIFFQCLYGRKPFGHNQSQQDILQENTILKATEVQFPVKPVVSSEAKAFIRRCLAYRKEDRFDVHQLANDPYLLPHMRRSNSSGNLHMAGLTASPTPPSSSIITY
The conditions noted are these: kinase TLK1, singlicate.
Description: as §1

Structures are written as SMILES. Read-outs that look alike come from different tables or passages of the source.

Chain of 320 wild-type protein kinases (Homo sapiens, UniProt P14616) (P14616 27-1297): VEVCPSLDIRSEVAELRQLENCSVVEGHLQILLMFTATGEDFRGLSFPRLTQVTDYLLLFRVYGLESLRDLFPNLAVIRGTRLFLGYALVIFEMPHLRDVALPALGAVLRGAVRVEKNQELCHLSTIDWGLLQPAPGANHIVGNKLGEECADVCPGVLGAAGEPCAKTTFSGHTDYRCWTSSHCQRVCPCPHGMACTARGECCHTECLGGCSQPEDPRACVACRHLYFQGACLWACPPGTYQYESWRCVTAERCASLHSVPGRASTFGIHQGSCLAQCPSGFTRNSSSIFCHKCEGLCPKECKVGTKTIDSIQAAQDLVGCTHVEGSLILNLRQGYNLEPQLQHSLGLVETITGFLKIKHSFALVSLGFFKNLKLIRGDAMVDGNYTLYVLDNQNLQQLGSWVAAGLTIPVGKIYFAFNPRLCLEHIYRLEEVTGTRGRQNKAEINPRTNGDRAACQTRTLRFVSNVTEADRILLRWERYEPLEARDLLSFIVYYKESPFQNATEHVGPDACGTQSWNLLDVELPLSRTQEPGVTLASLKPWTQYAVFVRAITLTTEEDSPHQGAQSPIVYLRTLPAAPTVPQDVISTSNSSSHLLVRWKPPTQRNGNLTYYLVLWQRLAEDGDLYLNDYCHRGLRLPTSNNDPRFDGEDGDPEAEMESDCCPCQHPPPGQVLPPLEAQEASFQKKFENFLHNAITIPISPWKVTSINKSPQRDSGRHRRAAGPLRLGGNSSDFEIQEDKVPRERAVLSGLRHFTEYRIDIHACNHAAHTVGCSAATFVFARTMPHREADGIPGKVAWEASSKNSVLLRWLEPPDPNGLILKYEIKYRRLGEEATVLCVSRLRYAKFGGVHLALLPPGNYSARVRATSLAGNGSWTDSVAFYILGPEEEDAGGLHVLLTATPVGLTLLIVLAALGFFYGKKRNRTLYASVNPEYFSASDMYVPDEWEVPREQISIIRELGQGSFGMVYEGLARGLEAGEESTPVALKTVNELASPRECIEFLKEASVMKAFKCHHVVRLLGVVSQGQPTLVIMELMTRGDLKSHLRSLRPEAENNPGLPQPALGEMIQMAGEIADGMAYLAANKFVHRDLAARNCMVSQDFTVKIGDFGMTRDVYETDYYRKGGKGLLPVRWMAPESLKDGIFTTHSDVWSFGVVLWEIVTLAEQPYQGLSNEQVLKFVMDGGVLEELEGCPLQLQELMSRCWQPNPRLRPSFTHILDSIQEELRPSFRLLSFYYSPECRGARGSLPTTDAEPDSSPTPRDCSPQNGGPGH
Chain of 320 wild-type protein kinases (Homo sapiens, UniProt Q05655) (Q05655 whole entry): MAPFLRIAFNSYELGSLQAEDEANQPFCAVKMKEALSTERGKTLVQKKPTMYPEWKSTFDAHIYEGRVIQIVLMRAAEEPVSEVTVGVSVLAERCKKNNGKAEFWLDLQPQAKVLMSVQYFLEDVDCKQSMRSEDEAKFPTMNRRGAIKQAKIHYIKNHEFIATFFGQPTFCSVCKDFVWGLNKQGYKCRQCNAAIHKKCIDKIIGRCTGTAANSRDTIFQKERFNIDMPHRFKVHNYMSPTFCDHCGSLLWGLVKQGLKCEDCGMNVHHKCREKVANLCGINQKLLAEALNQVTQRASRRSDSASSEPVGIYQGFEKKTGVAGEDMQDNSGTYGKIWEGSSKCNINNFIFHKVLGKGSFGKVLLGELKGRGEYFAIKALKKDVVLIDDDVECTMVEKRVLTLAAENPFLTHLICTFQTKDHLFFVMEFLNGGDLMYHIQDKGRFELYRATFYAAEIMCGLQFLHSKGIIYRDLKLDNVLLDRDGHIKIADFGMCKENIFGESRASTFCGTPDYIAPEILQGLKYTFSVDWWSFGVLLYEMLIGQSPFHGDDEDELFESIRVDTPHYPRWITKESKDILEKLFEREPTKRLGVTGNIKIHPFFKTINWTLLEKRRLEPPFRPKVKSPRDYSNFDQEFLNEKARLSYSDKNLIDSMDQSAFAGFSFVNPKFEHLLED
Chain of 320 wild-type protein kinases (Homo sapiens, UniProt P11362) (P11362 22-822): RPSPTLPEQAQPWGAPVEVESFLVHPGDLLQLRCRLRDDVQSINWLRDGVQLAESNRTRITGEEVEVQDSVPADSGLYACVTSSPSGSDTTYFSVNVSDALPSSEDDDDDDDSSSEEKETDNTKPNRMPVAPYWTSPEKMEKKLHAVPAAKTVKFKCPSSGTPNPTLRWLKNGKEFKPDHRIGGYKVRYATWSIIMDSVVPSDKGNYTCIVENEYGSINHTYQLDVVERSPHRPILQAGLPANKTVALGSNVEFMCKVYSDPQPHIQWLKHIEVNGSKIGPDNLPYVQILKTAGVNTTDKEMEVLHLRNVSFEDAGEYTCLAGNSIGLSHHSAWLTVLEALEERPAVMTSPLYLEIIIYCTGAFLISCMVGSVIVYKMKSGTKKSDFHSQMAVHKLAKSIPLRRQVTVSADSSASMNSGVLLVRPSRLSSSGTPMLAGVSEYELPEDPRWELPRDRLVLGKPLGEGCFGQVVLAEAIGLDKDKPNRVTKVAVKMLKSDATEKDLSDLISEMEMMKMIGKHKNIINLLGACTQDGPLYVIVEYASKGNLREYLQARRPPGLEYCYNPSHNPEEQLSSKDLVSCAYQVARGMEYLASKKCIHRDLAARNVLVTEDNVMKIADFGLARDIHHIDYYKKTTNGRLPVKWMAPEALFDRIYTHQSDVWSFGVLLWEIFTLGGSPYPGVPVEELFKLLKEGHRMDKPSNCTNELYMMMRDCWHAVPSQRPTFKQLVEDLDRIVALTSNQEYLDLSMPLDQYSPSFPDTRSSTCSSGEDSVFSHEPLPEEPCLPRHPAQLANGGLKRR
Chain of 320 wild-type protein kinases (Homo sapiens, UniProt Q9HCP0) (Q9HCP0 whole entry): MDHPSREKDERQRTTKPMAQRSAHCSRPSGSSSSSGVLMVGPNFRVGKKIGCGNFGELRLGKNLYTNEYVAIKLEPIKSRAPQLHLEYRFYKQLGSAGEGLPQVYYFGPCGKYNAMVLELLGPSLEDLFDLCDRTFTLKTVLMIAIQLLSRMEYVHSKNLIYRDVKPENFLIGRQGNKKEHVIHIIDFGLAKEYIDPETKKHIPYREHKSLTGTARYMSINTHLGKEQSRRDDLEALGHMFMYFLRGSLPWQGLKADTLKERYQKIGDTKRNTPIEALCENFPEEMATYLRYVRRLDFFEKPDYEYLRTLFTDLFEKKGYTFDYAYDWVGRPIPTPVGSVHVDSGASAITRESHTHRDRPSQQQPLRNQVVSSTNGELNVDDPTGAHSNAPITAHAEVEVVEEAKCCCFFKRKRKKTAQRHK
Chain of 320 wild-type protein kinases (Homo sapiens, UniProt Q02763) (Q02763 23-1124): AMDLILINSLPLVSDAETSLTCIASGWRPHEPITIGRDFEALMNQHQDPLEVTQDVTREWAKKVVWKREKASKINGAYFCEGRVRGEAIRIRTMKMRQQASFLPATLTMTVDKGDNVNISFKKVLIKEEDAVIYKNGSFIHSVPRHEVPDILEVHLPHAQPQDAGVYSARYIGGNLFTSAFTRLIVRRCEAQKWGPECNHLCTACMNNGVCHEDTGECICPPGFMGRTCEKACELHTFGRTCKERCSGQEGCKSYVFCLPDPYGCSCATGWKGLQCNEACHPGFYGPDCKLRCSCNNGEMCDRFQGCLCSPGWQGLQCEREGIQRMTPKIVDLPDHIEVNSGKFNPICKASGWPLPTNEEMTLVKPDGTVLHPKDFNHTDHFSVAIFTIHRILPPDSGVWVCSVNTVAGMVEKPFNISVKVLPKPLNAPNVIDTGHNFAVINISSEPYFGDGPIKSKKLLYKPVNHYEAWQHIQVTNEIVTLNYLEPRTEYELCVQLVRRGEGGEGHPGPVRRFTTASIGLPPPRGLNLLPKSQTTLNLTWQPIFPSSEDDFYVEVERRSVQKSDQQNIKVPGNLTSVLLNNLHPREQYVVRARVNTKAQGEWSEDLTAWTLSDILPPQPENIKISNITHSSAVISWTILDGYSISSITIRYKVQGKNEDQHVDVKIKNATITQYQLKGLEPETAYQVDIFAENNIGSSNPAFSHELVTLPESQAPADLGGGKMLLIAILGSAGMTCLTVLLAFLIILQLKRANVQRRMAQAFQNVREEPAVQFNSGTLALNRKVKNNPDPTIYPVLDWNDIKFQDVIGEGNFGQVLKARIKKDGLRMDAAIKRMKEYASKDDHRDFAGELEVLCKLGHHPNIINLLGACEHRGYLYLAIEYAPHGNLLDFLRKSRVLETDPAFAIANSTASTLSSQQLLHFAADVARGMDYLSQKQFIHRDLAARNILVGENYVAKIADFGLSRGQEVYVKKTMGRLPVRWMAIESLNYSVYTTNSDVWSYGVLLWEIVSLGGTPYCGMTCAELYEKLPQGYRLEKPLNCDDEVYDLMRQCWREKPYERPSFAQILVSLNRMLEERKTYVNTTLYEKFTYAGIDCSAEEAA
Chain of 320 wild-type protein kinases (Homo sapiens, UniProt P51617) (P51617 whole entry): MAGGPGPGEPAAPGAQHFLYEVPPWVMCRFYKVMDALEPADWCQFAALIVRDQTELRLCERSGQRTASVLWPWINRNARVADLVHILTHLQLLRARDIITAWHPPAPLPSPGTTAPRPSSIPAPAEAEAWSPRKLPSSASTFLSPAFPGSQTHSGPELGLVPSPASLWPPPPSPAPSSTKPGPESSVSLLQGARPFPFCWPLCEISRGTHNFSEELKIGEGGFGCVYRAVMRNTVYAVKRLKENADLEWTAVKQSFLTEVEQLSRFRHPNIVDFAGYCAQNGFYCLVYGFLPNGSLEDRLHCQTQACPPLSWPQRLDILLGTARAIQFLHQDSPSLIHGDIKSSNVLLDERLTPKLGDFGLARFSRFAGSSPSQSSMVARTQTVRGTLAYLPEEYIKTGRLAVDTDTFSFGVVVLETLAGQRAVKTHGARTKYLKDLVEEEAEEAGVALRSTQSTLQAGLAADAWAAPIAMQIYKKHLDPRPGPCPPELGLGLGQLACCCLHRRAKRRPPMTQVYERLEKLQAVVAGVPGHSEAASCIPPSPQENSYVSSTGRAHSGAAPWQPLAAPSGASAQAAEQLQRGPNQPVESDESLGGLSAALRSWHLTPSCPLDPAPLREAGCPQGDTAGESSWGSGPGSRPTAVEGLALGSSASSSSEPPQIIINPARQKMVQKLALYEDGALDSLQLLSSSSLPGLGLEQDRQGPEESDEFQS

`C#Cc1cc(Nc2ncnc3cc(OC)c(OC)cc23)ccc1Cl` [Compound 45]: the Residual activity is reported as 92 % of control in assay [1] (FGF-R1, 1.0E-06 M); 100 % of control in [1] (FGF-R1, 1.0E-07 M); 99 % of control in assay [2] (1.0E-06 M); 103 % of control in assay [2] (1.0E-07 M); 105 % of control in [3] (IRAK1, 1.0E-06 M); 109 % of control in assay [3] (IRAK1, 1.0E-07 M). In addition, the Residual activity is listed as 89 % of control in [5] (1.0E-06 M); 115 % of control in assay [5] (1.0E-07 M); 98 % of control in assay [6] (AMPK-alpha1 aa1-550, 1.0E-06 M); 91 % of control in [6] (AMPK-alpha1 aa1-550, 1.0E-07 M); 121 % of control in assay [8] (GRK7, 1.0E-06 M); 115 % of control in assay [8] (GRK7, 1.0E-07 M). Moreover, the Residual activity in [9] (MYLK2, 1.0E-06 M) is given as 70 % of control; in assay [9] (MYLK2, 1.0E-07 M) it was 89 % of control; in [10] (CK1-gamma1, 1.0E-06 M), 100 % of control; in assay [10] (CK1-gamma1, 1.0E-07 M), 112 % of control. Also, the “Residual activity, TIE2” value in assay [4] (assay conc. 1.0E-06 M) is recorded as 82 % of control; in assay [4] (assay conc. 1.0E-07 M), 111 % of control. Also, the “Residual activity, TTBK2” value in [7] (assay conc. 1.0E-06 M) is 95 % of control; in assay [7] (assay conc. 1.0E-07 M), 96 % of control. Moreover, the entries for the “Residual activity, TLK1” value in [11] (assay conc. 1.0E-06 M) and in assay [11] (assay conc. 1.0E-07 M) were 108 % of control and 112 % of control, respectively.
In the case of `C#Cc1cc(Nc2ncnc3cc(I)ccc23)ccc1Cl` [Compound 41], the Residual activity is given as 85 % of control in assay [1] (FGF-R1, 1.0E-06 M); 107 % of control in assay [1] (FGF-R1, 1.0E-07 M); 93 % of control in [2] (1.0E-06 M); 96 % of control in [2] (1.0E-07 M); 103 % of control in [3] (IRAK1, 1.0E-06 M); 109 % of control in [3] (IRAK1, 1.0E-07 M). In addition, the Residual activity in assay [5] (1.0E-06 M) was 88 % of control; in assay [5] (1.0E-07 M) it was 92 % of control; in [6] (AMPK-alpha1 aa1-550, 1.0E-06 M), 107 % of control; in assay [6] (AMPK-alpha1 aa1-550, 1.0E-07 M), 106 % of control; in assay [8] (GRK7, 1.0E-06 M), 116 % of control; in assay [8] (GRK7, 1.0E-07 M), 124 % of control. For the same compound, the Residual activity in [9] (MYLK2, 1.0E-06 M) is recorded as 75 % of control; in assay [9] (MYLK2, 1.0E-07 M), 90 % of control; in [10] (CK1-gamma1, 1.0E-06 M) it was 123 % of control; in [10] (CK1-gamma1, 1.0E-07 M) it was 125 % of control. The “Residual activity, TIE2” value in assay [4] (assay conc. 1.0E-06 M) is recorded as 87 % of control; in assay [4] (assay conc. 1.0E-07 M) it was 84 % of control. The “Residual activity, TTBK2” value is on record as 101 % of control in assay [7] (assay conc. 1.0E-06 M) and 102 % of control in assay [7] (assay conc. 1.0E-07 M). Further, the “Residual activity, TLK1” value in assay [11] (assay conc. 1.0E-06 M) is on record as 100 % of control; in assay [11] (assay conc. 1.0E-07 M), 110 % of control.

The record behind these values is paper PMC9329436, “Optimization of the 4-anilinoquin(az)oline scaffold as epidermal growth factor receptor (EGFR) inhibitors for chordoma utilizing a toxicology profiling assay platform” (Scientific Reports, 2022).
